Laboratory results reported in patent US20210253538A1, “AMINOPYRAZINES AND RELATED COMPOUNDS USEFUL AS MITOCHONDRIAL UNCOUPLERS” (VIRGINIA TECH INTELLECTUAL PROPERTIES, INC., priority 2018, published 2021).

Columns and labels:
[1] = test system: whole cells (NMuLi, C2C12, and L6 cells, isolated cardiomyocytes, human primary fibroblasts); test: Oxygen consumption rate (OCR) in whole cells, Seahorse XF-24 Flux Analyzer; assay type: cell-based
Experimental: Biological activities of the compounds synthesized is determined by determining increase in oxygen consumption rate (OCR).
Oxygen consumption rate (OCR) in whole cells is measured in general accordance with the method of Kenwood B M et al. (Mol. Met. (2014) 3: 114-123).
OCR is measured using a Seahorse XF-24 Flux Analyzer (Seahorse Biosciences, North Billerica, Mass.). NMuLi, C2C12, and L6 cells are seeded in a Seahorse 24-well tissue culture plate at a density of 3.5×10^4 cells/well, isolated cardiomyocytes at a density of 4×10^4 cells/well, and human primary fibroblasts at a density of 1.1×10^4 cells/well. The cells are then allowed to adhere for 24 h. Prior to the assay, the media is changed to unbuffered DMEM containing pyruvate and glutamine (Gibco #12800-017, pH=7.4 at 37° C.) and the cells are equilibrated for 30 mins at 37° C. Compounds are injected during the assay and OCR is measured using 2 min measurement periods.
2-3 wells are used per condition and averaged over three plates (n=6-9). Statistical significance is determined by two-way ANOVA with Bonferroni's posttest.

[2] = patients consuming ~300 mg/d, over several months, without changes in food intake; cited from earlier work

Oc1nc(C(F)(F)F)cnc1Nc1ccc(OC(F)(F)F)cc1 [Compound 3-19, 3-((4-(Trifluoromethoxy)Phenyl)Amino)-6-(Trifluoromethyl)Pyrazin-2-Ol]
increase in oxygen consumption rate (OCR) [1]: observable activity

Oc1nc(-c2ccc(C(F)(F)F)cc2)cnc1Nc1ccc(OC(F)(F)F)cc1 [Compound 3-26, 3-((4-(Trifluoromethoxy)Phenyl)Amino)-6-(4-(Trifluoromethyl)Phenyl) Pyrazin-2-Ol]
increase in oxygen consumption rate (OCR) [1]: observable activity

O=[N+]([O-])c1ccc(O)c([N+](=O)[O-])c1 [DNP, 2,4-dinitrophenol]
Average weight shed [2]: 1.5 pounds per week

FC(F)(F)Oc1ccc(Nc2ncc(C(F)(F)F)nc2OCc2ccccc2)cc1 [Compound 3-18, 3-(Benzyloxy)-N-(4-(Trifluoromethoxy)Phenyl)-5-(Trifluoromethyl)Pyrazin-2-Amine]
increase in oxygen consumption rate (OCR) [1]: observable activity
